Experimental data taken from patent US10927117B2 (BEIGENE SWITZERLAND GMBH, priority 2016, dated 2021).

What was measured:
[1] = test system: Waldenstrom's Macroglobulinemia (WM); experiment: Phase 1 trial in patients with Waldenstrom's Macroglobulinemia (WM); type: in vivo, human
Protocol: The dose-escalation component of the trail tested total daily doses ranging from 40 mg to 320 mg, and the ongoing dose-expansion phase is testing doses of 160 mg twice a day (BID) or 320 mg once a day (QD). As of Mar. 31, 2017, 48 patients with WM were enrolled in the study. Responses were determined according to the modified Sixth International Workshop on WM (IWWM) criteria.

[2] = test system: Chronic Lymphocytic Leukemia and Small Lymphocytic Lymphoma (CLL/SLL); experiment: Phase 1 trial in patients with CLL/SLL; type: in vivo, human
Protocol: The dose-escalation component of the trail tested total daily doses between 40 mg and 320 mg, and the ongoing dose-expansion component is testing doses of 160 mg twice a day (BID) or 320 mg once a day (QD). As of Mar. 31, 2017, 69 patients with CLL or SLL (18 TN, […]) were enrolled in the study.

[3] = test system: Mino cells (MCL cell line); experiment: Tumor cell proliferation, CellTiter-Glo, Mino; type: cell-based; details: Homo sapiens, 144 h, 6-day exposure, mean of 3 independent assays, read-out: Potency IC50
Protocol: 3 MCL cell lines (Rec-1, Mino and JEKO-1) and an ABC type diffuse large B-cell lymphoma cell line (TMD8) were used in this study. Cell lines were maintained in RPMI-1640 supplemented with 10% fetal bovine serum/FBS (Thermo Scientific); 100 units/ml penicillin (Gibco) and 0.1 mg/ml streptomycin (Gibco) and kept at 37° C. in a humidified atmosphere of 5% CO2 in air. Cell lines were reinstated from frozen stocks that were laid down within 30 passages from the original cells purchased.
The growth-inhibitory activity of compounds in Rec-1, Mino, JEKO-1 and TMD-8 cells was determined using CellTiter-Glo luminescent cell viability assay (Promega). The number of cells seeded per well of a 96-well plate was optimized for each cell line to ensure logarithmic growth over 6 days treatment period. Cells were treated in triplicate with a 10-point dilution series. […] Mixture was mixed on an orbital shaker for 2 minutes to allow cell lysis, followed by 10 minutes incubation at room temperature to allow development and stabilization of luminescent signal, which corresponded to quantity of ATP and thus the quantity of metabolically active cells. Luminescent signal was measured using PHERAstar FS reader (BMG Labtech). IC50 values for cell viability were determined with GraphPad Prism software and were the mean of 3 independent assays.

TMD-8 DLBCL xenografts = experiment: Efficacy study in TMD-8 xenograft model; type: in vivo, NOD/SCID mice
Protocol: Animals were pre-treated with cyclophosphamide (prepared in saline, 150 mg/kg i.p.) and disulfiram (prepared in 0.8% Tween 80 in saline, 125 mg/kg p.o., one hour after each dose of cyclophosphamide) once daily for two days Animals were then inoculated with TMD-8 cells 24 hours after the second dose of cyclophosphamide. On the day of implantation, cell culture medium was replaced with fresh medium. Four hours later, media was removed and cells were collected as described above. Cells were re-suspended in cold (4° C.) PBS and same volume of matrigel (BD, Cat #356237) was added to give a final concentration of 2.5×10^7 cells/ml. Resuspended cells were placed on ice prior to inoculation The right axilla region of each mouse was cleaned with 75% ethanol prior to cell inoculation. Each animal was injected subcutaneously with 5×10^6 cells in 200 μl of cell suspension in the right front flank via a 26-gauge needle.
For in vivo efficacy studies, starting from day 3 after cell inoculation, animals were randomly assigned into desired number of groups with 10 mice per group. […] Treatments were administered by oral gavage (p.o.) in a volume of 10 ml/kg body weight. Body weight was assessed immediately before dosing and volume dosed was adjusted accordingly. Tumor volume was measured twice weekly in two dimensions using a calliper (measureable from day 11 post inoculation in this study). Tumor volume was calculated using the formula: V=0.5×(a×b^2) where a and b are the long and short diameters of the tumor, respectively. Statistical analysis was conducted using the student T-test. P<0.05 was considered statistically significant. One individual was responsible for tumor measurement for the entire duration of the study. Body weights were also recorded twice weekly. Mice were also being monitored daily for clinical signs of toxicity for the duration of the study.

[4] = Pharmacokinetics in rats (LC-MS/MS); type: in vivo, Sprague-Dawley rats
[5] = CLL/SLL, adverse event of interest

SMILES: C=CC(=O)N1CCC([C@@H]2CCNc3c(C(N)=O)c(-c4ccc(Oc5ccccc5)cc4)nn32)CC1 [Compound 1, (S)-7-(1-acryloylpiperidin-4-yl)-2-(4-phenoxyphenyl)-4,5,6,7-tetra-hydropyrazolo[1,5-a]pyrimidine-3-carboxamide]
- discontinuation for Compound 1-related toxicity [1]: no discontinuation
- events leading to treatment discontinuation [1]: Three events
- serious AEs assessed to be possibly related [1]: Five
- major response rate ([1]; 42 evaluable patients): 76%
- partial responses ([1]; 42 evaluable patients): 33%
- overall response rate (ORR) ([1]; 42 evaluable patients, median follow-up 12.3 months): 90%
- AE anemia ([1]; 48 patients): 15%
- AE constipation ([1]; 48 patients): 25%
- AE cough ([1]; 48 patients): 15%
- AE diarrhea ([1]; 48 patients): 19%
- AE epistaxis ([1]; 48 patients): 19%
- AE headache ([1]; 48 patients): 15%
- AE nausea ([1]; 48 patients): 17%
- AE neutropenia ([1]; 48 patients): 13%
- AE rash ([1]; 48 patients): 13%
- AE upper respiratory tract infection ([1]; 48 patients): 31%
- grade 3 or 4 anemia ([1]; 48 patients): 8%
- grade 3 or 4 diarrhea ([1]; 48 patients): 2%
- grade 3 or 4 headache ([1]; 48 patients): 2%
- grade 3 or 4 neutropenia ([1]; 48 patients): 8%
- AE petechiae/purpura/contusion ([1]; 48 patients, any attribution): 35%
- cases of atrial fibrillation ([1]; all grade 1 or 2): three cases
- serious hemorrhage ([1]; hemothorax): one case
- AE arthralgia ([2]; CLL/SLL): 12%
- AE cough ([2]; CLL/SLL): 23%
- AE diarrhea ([2]; CLL/SLL): 22%
- AE fatigue ([2]; CLL/SLL): 29%
- AE headache ([2]; CLL/SLL): 19%
- AE hematuria ([2]; CLL/SLL): 15%
- AE muscle spasms ([2]; CLL/SLL): 12%
- AE nausea ([2]; CLL/SLL): 13%
- AE rash ([2]; CLL/SLL): 13%
- AE upper respiratory tract infection ([2]; CLL/SLL): 28%
- AE urinary tract infection ([2]; CLL/SLL): 12%
- number of serious AEs (SAEs) ([2]; CLL/SLL): 18
- patients with serious AEs ([2]; CLL/SLL): 13
- overall response rate (ORR) ([2]; CLL/SLL, 66 evaluable patients, median follow-up 10.5 months): 94%
- PRs with lymphocytosis (PR-Ls) ([2]; CLL/SLL, 66 patients): 9%
- complete responses (CRs) ([2]; CLL/SLL, 66 patients): 3%
- partial responses (PRs) ([2]; CLL/SLL, 66 patients): 82%
- grade 2 atrial fibrillation [2, 5]: one case
- grade 2 diarrhea [2, 5]: one case
- AE petechiae/purpura/contusion ([2]; CLL/SLL, any attribution): 46%
- patients who discontinued treatment due to an AE ([2]; CLL/SLL, grade 2 pleural effusion): one patient
- treatment discontinuation rate ([2]; CLL/SLL, median follow-up 10.5 months): 3%
- major bleeding event ([2]; CLL/SLL, subcutaneous hemorrhage): one case of grade 3 purpura
- CRs ([2]; R/R CLL/SLL, 50 patients): 2%
- PR-Ls ([2]; R/R CLL/SLL, 50 patients): 8%
- PRs ([2]; R/R CLL/SLL, 50 patients): 82%
- stable disease ([2]; R/R CLL/SLL, 50 patients): 6%
- ORR ([2]; R/R CLL/SLL, 50 patients, median follow-up 14.0 months): 92%
- CRs ([2]; TN CLL/SLL, 16 patients): 6%
- PR-Ls ([2]; TN CLL/SLL, 16 patients): 13%
- PRs ([2]; TN CLL/SLL, 16 patients): 81%
- ORR ([2]; TN CLL/SLL, 16 patients, median follow-up 7.6 months): 100%
- time-dependent CYP inhibition potential (7 major human CYPs): unlikely to be time dependent CYP inhibitors

SMILES: C=CC(=O)N1CCC([C@@H]2CCNc3c(C(N)=O)c(-c4ccc(Oc5ccccc5)cc4)nn32)CC1 [Crystalline Form A, (S)-7-(1-acryloylpiperidin-4-yl)-2-(4-phenoxyphenyl)-4,5,6,7-tetra-hydropyrazolo[1,5-a]pyrimidine-3-carboxamide]
- IC50 [3]: 3.8 nM
- impact on animal body weight (TMD-8 DLBCL xenografts; all treatment groups): no significant impact on animal body weight
- anti-tumor effects (TMD-8 DLBCL xenografts; different dose levels BID p.o., 39 days): dose-dependent anti-tumor effects
- anti-tumor activity at lowest dose tested (TMD-8 DLBCL xenografts; lowest dose tested, BID p.o.): strong anti-tumor activity
- linearity of kinetics over the dose range ([4]; female rats): linear
- accumulation following multiple oral dosing ([4]; male and female rats): no statistically significant accumulation
- linearity of kinetics ([4]; male rats): not as good
- absorption ([4]; rats): quickly absorbed
- oral bioavailability ([4]; rats): good oral bioavailability
- plasma clearance (CL) ([4]; rats): high plasma clearance
